Literature values in patent US6379615B1, “Methods of sterilizing articles” (St. Jude Medical, Inc., priority 2000, dated 2002).

Details: ethanol at about 70 percent by weight; cited from earlier work

For `CCO` [ethanol], the “bactericidal effect of ethanol alone” value is given as “only mildly bactericidal”.
